Assay results published in patent publication US7553974B2, “Crystal of (2R,4R)-monatin potassium salt and sweetener composition containing same” (Ajinomoto Co., Inc., priority 2004, dated 2009).
Counter-ions that a name gives are not always drawn. Like-named read-outs stand apart in the source and are kept apart here.

Tests used:
[1] = type: physicochemical; details: for area %: HPLC area of (2R,4R)-monatin relative to total peak area, 210 nm, 60° C. preservation sample; for area % / weight change (%): 1 week; for weight change (%): HPLC quantitation value of 60° C. sample, room temperature sample = 100%
Method: The crystals of the (2R,4R)-monatin dipotassium salt obtained in Example 1 and Example 9, and crystals of the (2R,4R)-monatin monopotassium salt produced according to the production method described in the aforementioned WO03/045914 were subjected to a preservation stability test. Each sample (50 mg) was placed in a 4 ml vial (with screw cap) and stored at 60° C. and room temperature for 1 week.
A chromatogram for each sample was measured by HPLC, and the HPLC quantitation value of the 60° C. preservation sample, when that of the room temperature preservation sample was 100%, was shown as a weight change. In addition, an HPLC chromatogram of each sample was measured and the ratio of the area value of (2R,4R)-monatin relative to the total area value of the entire peaks detected (detection wavelength: 210 nm) in the 60° C. preservation sample was expressed as the area %.

[2] = type: physicochemical; details: for transmittance (%): 1 g/dl in H2O, room temperature, 490 nm
Source text: The crystals of the (2R,4R)-monatin dipotassium salt obtained in Example 9, (2R,4R)-monatin, and crystals of the (2R,4R)-monatin monopotassium salt produced according to the production method described in the aforementioned WO03/045914 were subjected to a coloring test. Measurement Method of Coloring Test: • Measurement device: CARY 50 UV-VIS spectrophotometer manufactured by Varian Technologies Japan Limited; • Concentration: 1 g/dl; • Solvent: H2O; • Temperature: room temperature; • Measurement wavelength: 490 nm; and • Measurement interval: 30 minutes.

[3] = type: physicochemical
Method: The crystals of the (2R,4R)-monatin dipotassium salt obtained in Example 9 and crystals of the (2R,4R)-monatin monopotassium salt were tested for solubility using the following conditions” • Temperature: 20° C.; and
Solubility measurement method: Two test tubes for each of 0, 20, 40, 60, 80, 100% ethanol, which contained 2 ml thereof were prepared. The crystals of the (2R,4R)-monatin dipotassium salt and crystals of the (2R,4R)-monatin monopotassium salt were added thereto in an amount prohibiting complete dissolution. The test tubes were capped and stirred overnight. Then, the mixture was passed through a filter (0.45 μm) and the filtrate was analyzed.

NC(CC(O)(Cc1c[nH]c2ccccc12)C(=O)O)C(=O)O [(2R,4R)-monatin monopotassium salt]
area % [1]: 99.8% | weight change (%) [1]: 100% | transmittance (%) ([2]; time 0.0 hour): 100.02% | transmittance (%) ([2]; time 2.0 hour): 99.75% | transmittance (%) ([2]; time 4.0 hour): 99.28% | transmittance (%) ([2]; time 6.0 hour): 98.42% | transmittance (%) ([2]; time 8.0 hour): 97.98% | transmittance (%) ([2]; time 10.0 hour): 96.86% | transmittance (%) ([2]; time 12.0 hour): 95.61% | transmittance (%) ([2]; time 14.0 hour): 94.35% | transmittance (%) ([2]; time 16.0 hour): 92.97% | transmittance (%) ([2]; time 18.0 hour): 91.49% | transmittance (%) ([2]; time 20.0 hour): 90.05% | transmittance (%) ([2]; time 22.0 hour): 88.75%

N[C@H](C[C@](O)(Cc1c[nH]c2ccccc12)C(=O)[O-])C(=O)[O-].[K+].[K+] [Example 1, (2R,4R)-monatin dipotassium salt]
area % ([1]; dipotassium salt): 98.4% | weight change (%) ([1]; dipotassium salt): 99%

N[C@H](C[C@](O)(Cc1c[nH]c2ccccc12)C(=O)[O-])C(=O)[O-].[K+].[K+] [Example 9, (2R,4R)-monatin dipotassium salt]
preservation stability [1]: almost of the same level | area % [1]: 99.6% | weight change (%) [1]: 103% | solubility [3]: superior | color stability [2]: superior | transmittance (%) ([2]; time 0.0 hour): 99.63% | transmittance (%) ([2]; time 2.0 hour): 99.60% | transmittance (%) ([2]; time 4.0 hour): 99.51% | transmittance (%) ([2]; time 6.0 hour): 99.43% | transmittance (%) ([2]; time 8.0 hour): 99.44% | transmittance (%) ([2]; time 10.0 hour): 99.44% | transmittance (%) ([2]; time 12.0 hour): 99.41% | transmittance (%) ([2]; time 14.0 hour): 99.42% | transmittance (%) ([2]; time 16.0 hour): 99.39% | transmittance (%) ([2]; time 18.0 hour): 99.35% | transmittance (%) ([2]; time 20.0 hour): 99.39% | transmittance (%) ([2]; time 22.0 hour): 99.38%
